Measurements: publication PMC2691587 (Journal of medicinal chemistry, 2009)
Each block holds one compound with its values, some of them ahead of it.

Tests used:
human recombinant SIRT1 = target: T1, human recombinant SIRT1 (Homo sapiens, UniProt Q96EB6); experiment: SIRT1 inhibition, Fluor de Lys fluorescence-based assay; type: biochemical; conditions: ratio of IC50 values versus 1
T1 sequence (Q96EB6 1-747): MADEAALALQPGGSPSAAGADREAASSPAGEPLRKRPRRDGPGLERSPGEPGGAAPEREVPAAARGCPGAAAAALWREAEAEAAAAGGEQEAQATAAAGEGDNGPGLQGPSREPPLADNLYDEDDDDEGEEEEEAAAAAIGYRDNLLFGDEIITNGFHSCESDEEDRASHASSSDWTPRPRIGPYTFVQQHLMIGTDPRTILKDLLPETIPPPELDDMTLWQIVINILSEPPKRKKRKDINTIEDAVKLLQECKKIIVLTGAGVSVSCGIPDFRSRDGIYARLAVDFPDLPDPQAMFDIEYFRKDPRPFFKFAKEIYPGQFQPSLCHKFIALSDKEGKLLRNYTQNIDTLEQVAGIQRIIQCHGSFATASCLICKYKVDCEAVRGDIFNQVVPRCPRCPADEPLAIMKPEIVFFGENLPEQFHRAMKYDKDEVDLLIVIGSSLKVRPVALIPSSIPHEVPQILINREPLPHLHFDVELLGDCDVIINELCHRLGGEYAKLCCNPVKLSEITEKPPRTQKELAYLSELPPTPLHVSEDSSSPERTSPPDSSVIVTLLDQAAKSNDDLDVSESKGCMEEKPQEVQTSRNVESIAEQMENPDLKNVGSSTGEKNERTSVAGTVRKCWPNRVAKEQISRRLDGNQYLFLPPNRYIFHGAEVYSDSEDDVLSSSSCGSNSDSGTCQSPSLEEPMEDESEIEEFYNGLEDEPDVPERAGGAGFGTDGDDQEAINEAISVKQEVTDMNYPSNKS

[1] = system: MCF-7 breast adenocarcinoma cells; experiment: Western blot of p53 and K382-acetylated p53 levels in MCF-7 cells; type: cell-based, human
H1299 cells = experiment: Western blot of K40-acetylated α-tubulin levels in H1299 cells; type: cell-based, human
SIRT1 = conditions: read-out: SIRT1 IC50 (previously reported); in vitro; cited from earlier work
SIRT2 = conditions: read-out: SIRT2 IC50 (previously reported); in vitro; cited from earlier work
NCI H460 cancer cells = conditions: in the presence of etoposide (10 μM); cited from earlier work

improvement in activity (IC50) against SIRT1 compared to 1 (human recombinant SIRT1): 3 fold
Compound: O=c1[nH]c(=S)[nH]c(-c2ccc(Br)cc2)c1Cc1c(O)ccc2ccccc12 [6b, 6-(4′-Bromophenyl)-5-[2″-hydroxynaphthyl-(1″)-methyl]-2-thioxo-2,3-dihydro-1H-pyrimidin-4-one]
levels of p53 ([1]; MCF-7, compound alone, in the absence of etoposide, different concentrations): did not increase the levels of p53
levels of acetylated α-tubulin (H1299 cells; Figure S13, cell line not given): did not lead to an increase in the levels of acetylated α-tubulin

Compound: CCCCn1c(-c2ccccc2)c(Cc2c(O)ccc3ccccc23)c(=O)[nH]c1=S [6j, 6-Phenyl-5-[2″-hydroxynaphthalyl-(1″)-methyl]-1-butyl-2-thioxo-2,3-dihydro-1H-pyrimidin-4-one]
levels of acetylated α-tubulin compared to the effect of 1 (H1299 cells; H1299 cells, with trichostatin A, concentration range 10–50 μM): an increase in the levels of acetylated α-tubulin was achieved
toxicity in cells (H1299 cells; concentrations higher than 10–50 μM): toxicity

Compound: O=c1[nH]c(=S)[nH]c(-c2ccccc2)c1Cc1c(O)ccc2ccccc12 [compound 1, 6-Phenyl-5-[2″-hydroxynaphthyl-(1″)-methyl]-2-thioxo-2,3-dihydro-1H-pyrimidin-4-one]
levels of p53 and acetylated p53 ([1]; MCF-7, in the presence of etoposide (10 μM), 200 μM compound): decreased again
levels of p53 and Lys382 acetylated p53 ([1]; MCF-7, in the presence of etoposide (10 μM), 20 and 50 μM compound, 6 h): increased
levels of acetylated α-tubulin (H1299 cells; H1299 cells, with 40 nM trichostatin A, 24 h): did lead to an increase in levels of acetylated tubulin
IC50 (SIRT1): 56 µM
IC50 (SIRT2): 59 µM
levels of p53 and acetylated p53 (NCI H460 cancer cells): increased levels of p53 and acetylated p53
